Entries after “also recorded” stand apart in the source; their conditions may differ. Like-named read-outs stand apart in the source and are kept apart here.
Legend:
Olfr691 [1] = biological target: T1, Olfr691 (Mus musculus, UniProt Q8VGW5); assay: dual-luciferase (cAMP/CREB reporter) ligand screen, Olfr691 in HEK293T cells; format: cell-based; settings: for Relative response (% of 4-pentenoate response) at 500 µM: HEK-293T, 4 h, 0.5 mM ligand, normalized to the response of Olfr691 to the strongest ligand; for EC50: Olfr691 co-expressed with RTP1S in HEK293T cells, 10 µM to 7.5 mM; for Olfr691 response in dual-luciferase assay: chemicals tested individually, screened at 500uM (* also at 100uM); for Olfr691 response (in words): luciferase assay, co-expressed with RTP1S
T1 construct: Lucy (N); expressed in transfected cells; host or cells: HEK293T, co-transfected with RTP1S
T1 sequence (Q8VGW5 1-322): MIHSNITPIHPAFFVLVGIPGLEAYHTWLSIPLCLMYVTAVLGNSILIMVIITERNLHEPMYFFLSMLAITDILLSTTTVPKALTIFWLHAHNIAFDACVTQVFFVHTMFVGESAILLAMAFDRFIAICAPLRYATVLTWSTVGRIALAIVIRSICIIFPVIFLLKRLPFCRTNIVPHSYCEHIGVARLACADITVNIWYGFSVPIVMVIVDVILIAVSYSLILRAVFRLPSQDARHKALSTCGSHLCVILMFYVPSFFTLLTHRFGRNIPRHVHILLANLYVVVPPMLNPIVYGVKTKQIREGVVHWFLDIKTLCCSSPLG

Olfr545 = assay: dual-luciferase (cAMP/CREB reporter) ligand screen, Olfr545 in HEK293T cells; format: cell-based, mouse; design: key to Olfr545 response in dual-luciferase assay: ‘+’ or ‘–‘ in each column indicates if the olfactory receptor responded or had no effect to that specific chemical; -: ‘+’ or ‘–‘ in each column indicates if the olfactory receptor responded or had no effect to that specific chemical; settings: chemicals tested individually, screened at 500uM (* also at 100uM)
Olfr99 = assay: dual-luciferase (cAMP/CREB reporter) ligand screen, Olfr99 in HEK293T cells; format: cell-based, mouse; design: key: ‘+’ or ‘–‘ in each column indicates if the olfactory receptor responded or had no effect to that specific chemical; -: ‘+’ or ‘–‘ in each column indicates if the olfactory receptor responded or had no effect to that specific chemical; settings: chemicals tested individually, screened at 500uM (* also at 100uM)
Olfr693 = assay: dual-luciferase (cAMP/CREB reporter) ligand screen, Olfr693 in HEK293T cells; format: cell-based, mouse; design: key: ‘+’ or ‘–‘ in each column indicates if the olfactory receptor responded or had no effect to that specific chemical; -: ‘+’ or ‘–‘ in each column indicates if the olfactory receptor responded or had no effect to that specific chemical; settings: chemicals tested individually, screened at 500uM (* also at 100uM)
[2] = design: method as in PMID 20304335, PMID 15230715; settings: patients treated with valproate as an antiepileptic drug; cited from earlier work
Olfr31 = biological target: T2, Olfr31 (Mus musculus, UniProt Q3KPA7); assay: dual-luciferase (cAMP/CREB reporter) ligand screen, Olfr31 in HEK293T cells; format: cell-based; settings: chemicals tested individually, screened at 500uM (* also at 100uM)
T2 construct: expressed in transfected cells; host or cells: HEK293T, co-transfected with RTP1S
T2 sequence (Q3KPA7 1-317): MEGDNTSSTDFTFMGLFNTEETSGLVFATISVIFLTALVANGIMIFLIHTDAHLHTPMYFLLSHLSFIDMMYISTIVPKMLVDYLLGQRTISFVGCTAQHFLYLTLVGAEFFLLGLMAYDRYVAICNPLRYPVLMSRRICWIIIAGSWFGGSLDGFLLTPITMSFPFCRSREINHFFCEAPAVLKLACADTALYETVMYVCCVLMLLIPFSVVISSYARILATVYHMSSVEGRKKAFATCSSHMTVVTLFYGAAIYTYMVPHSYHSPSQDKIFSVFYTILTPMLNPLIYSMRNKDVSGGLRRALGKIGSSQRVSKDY

Olfr691 [3] = biological target: T1, Olfr691; design: method as in PMID 15550249; settings: cited from earlier work

SMILES	Relative response (% of 4-pentenoate response) at 500 µM (Olfr691 [1]) [%]	EC50 (Olfr691 [1]) [µM]	Olfr691 response in dual-luciferase assay (Olfr691 [1])	Olfr691 response (in words) (Olfr691 [1])	Olfr31 response in dual-luciferase assay (Olfr31)	Olfr691 response (in words) (Olfr691 [1]; listed as pentanal)	Olfr545 response in dual-luciferase assay (Olfr545)	Olfr99 response in dual-luciferase assay (Olfr99)	Olfr693 response in dual-luciferase assay (Olfr693)	renal adverse effect in patients [2]	previously reported ligand of Olfr691 (Olfr691 [3])	previously reported ligand of Olfr691 (Olfr691 [3]; listed as pentanal)
CCCCCCCCC(=O)O [nonanoic acid]			-		-		-	-	-			
CCCCCCCCC=O [nonanal]			-		-		-	-	-			
CCCC(=O)C(C)=O [2,3-hexadione]			-		-		-	-	-			
CCCCCOC(=O)CCCCC [Amylhexanoate]			-		-		-	-	-			
C[N+](C)(C)[O-] [Trimethylamine N-oxide]			-		-		-	-	-			
Cc1cncc(C)n1 [2,6-Dimethylpyrazine]			-		-		-	-	-			
CCCCCC(=O)O [caproate]	80 ± 1.4		+		-		-	-	-			
CCC(C)S (stereo not drawn) [1-methyl-1-propanethiol]			-		-		-	-	-			
CCCCC(=O)O [valerate]	98 ± 5.7	852	+	dose dependent manner; also recorded: able to confirm	-		-	-	-		previously reported	
C=CCSCC=C [allyl sulfide]			-		-		-	-	-			
C[C@H](CCC(=O)O)[C@H]1CC[C@H]2[C@@H]3CC[C@@H]4C[C@H](O)CC[C@]4(C)[C@H]3C[C@H](O)[C@]12C [Deoxyxholic acid]			-		-		-	-	-			
COc1cccc(OC)c1 [1,3-Dimethoxybenzene]			-		-		-	-	-			

Now from value to compound, other results behind:

Relative response (% of 4-pentenoate response) at 500 µM (Olfr691 [1]) [%]	EC50 (Olfr691 [1]) [µM]	Olfr691 response in dual-luciferase assay (Olfr691 [1])	Olfr691 response (in words) (Olfr691 [1])	Olfr31 response in dual-luciferase assay (Olfr31)	Olfr691 response (in words) (Olfr691 [1]; listed as pentanal)	SMILES	Olfr545 response in dual-luciferase assay (Olfr545)	Olfr99 response in dual-luciferase assay (Olfr99)	Olfr693 response in dual-luciferase assay (Olfr693)	renal adverse effect in patients [2]	previously reported ligand of Olfr691 (Olfr691 [3])	previously reported ligand of Olfr691 (Olfr691 [3]; listed as pentanal)
98 ± 5	478	+	highest affinity			CCCC(CCC)C(=O)O [valproate, reference compound]	-	-	-	develop Fanconi syndrome		
		-		-		C=C(C)[C@@H]1CC[C@@H](C)C(=O)C1 [(+)Dihydrocarvone]	-	-	-			
		-		-		CCCCCC(C)=O [2-heptanone]	-	-	-			
		-		-		O=C(O)CC(O)(CC(=O)O)C(=O)O [citric acid]	-	-	-			
		-		-		CC(C)=CCC/C(C)=C/CO [Geraniol]	-	-	-			
37 ± 2.7		+		-		CC(C)CCC(=O)O [isocaproate]	-	-	-			
		-		-		O=C(O)C1CCCCC1 [Cyclohexanecarboxylic acid]	-	-	-			
		-		-		CCCCCC(C)O (stereo not drawn) [2-Heptanol]	-	-	-			
		-		-		CCCCCCCCO [1-octanol]	-	-	-			
		-	not including	-		CC(=O)O [acetic acid]	-	-	-			
		-		-	did not induce a response	CCCCC=O [n-valeraldehyde]	-	-	-			previously reported
		-		-		CCCCCCCCCCCC(=O)O [dodecanoic acid]	-	-	-			
76 ± 3.6		+		-		CCCCC(CC)C(=O)O (stereo not drawn) [2-ethylhexanoate]	-	-	-			
